Test results published in patent US9328130B2, “Method of treating organism by biologically active compounds specifically delivered into mitochondria, pharmaceutical composition required for the use of the method and a compound applicable for this purpose” (MITOTECH S.A., priority 2005, dated 2016).

Experiments:
[1] = Oxidation of quinols by superoxide-anion radicals generated in xanthine oxidase/hypoxanthine system; format: biochemical
Description: In order to compare antioxidant activity of the reduced forms, we measured the oxidation rate of quinols by superoxide-anion radicals generated in xanthine oxidase/hypoxanthine system.

[2] = test system: Normal fibroblasts from the human skin and lung; assay: Morphology and mobility of normal fibroblasts; format: cell-based; conditions: 20 nM for 6 days
Method: Normal fibroblasts from the human skin and lung and HeLa cells were cultivated at low cell density (20-30% confluency). Morphometric measurements were carried out for cell area, dispersion and elongation. Cytoskeleton structures were analyzed by staining the fixed cell preparations with rhodamine falloidin (actin filaments), antibodies against tubulin (microtubules) and vinculin (surface contacts). Mobility of the cells was examined with the help of microvideo camera.

[3] = Transfer across the planar bilayer phospholipid membrane; format: physicochemical; conditions: 50 mM TrisHCl pH 7.4; 10^−7 to 10^−5 M; distributes according to Nernst equation
Description: The experimental method has been used several times before in the experiments aimed at the exploring of an ability of different ions to penetrate the planar bilayer lipid membrane and is described in details Liberman […]., 1969, Nature, 222, 1076-8. This method includes the use of two chambers filled in with water-based solution and separated by bilayer membrane, also the electrometrical registration of transfer of charged compounds capable of penetration across such membrane from one chamber to another. In our experiment the membrane was made of mixture of […] and diphytanoyl derivative of […] dissolved in decane; both chambers were filled with 50 mM TrisHCl, pH 7.4 containing 10^-7 M SkQ1.

[4] = test system: respiratory chain of rat liver mitochondria; format: biochemical
Method: FIG. 5 describes the oxidation of quinols of “MitoQ” and “SkQ1” by respiratory chain of rat liver mitochondria energized with succinate (5 mM) in the presence of 2 μM rotenone. After complete reduction of […] the respiratory chain was blocked with 25 mM malonate and reoxidation rate of “MitoQ” and “SkQ1” was measured. In order to examine whether the test compounds (SkQ1 and MitoQ) can be reduced by the respiratory chain of mitochondria, changes of the ratio between oxidized and reduced forms of test compounds were measured in the presence of respiratory substrates in a medium used for isolation of rat liver mitochondria. The measurements were carried out in the presence of mitochondria (protein concentration 0.2 mg/ml).

With `CC1=C(C)C(=O)C(CCCCCCCCCC[P+](c2ccccc2)(c2ccccc2)c2ccccc2)=CC1=O.[Br-]` [SkQ1, 2,3-dimethyl-1,4-benzoquinon-5-decyl-triphenylphosphonium bromide] the “LD50 in the presence of hydrogen peroxide” value (Hela cells; 100 μM hydrogen peroxide) was 20 µM, the “LD50 (concentrations at which 50% cells die)” value (Hela cells; 2 h of incubation, no hydrogen peroxide) was 20 µM and the “oxidation rate in the presence of both air oxygen and superoxide radical relative to MitoQ” value ([1]; FIG. 3a) was “about two times higher”. The “oxidation rate of quinol form by superoxide radical relative to MitoQ” value ([1]; oxidation by air oxygen subtracted, FIG. 3b) was “very much faster than MitoQ”, the “amount of actin filaments, times higher” value [2] was 3.7 times and the “dispersion index lowered by factor” value [2] was 2.4. The “filament density in comparison to the control” value [2] was 136%, the “mean cell area, times higher than control” value [2] was 2.9 times and the mobility of fibroblasts [2] was “distinctly lower”. The “rate of fibroblast proliferation” value [2] was “no influence on the rate of fibroblast proliferation”, the elongation index ([2]; control 2.34) was 0.69 and the “penetration of planar bilayer phospholipid membrane” value [3] was “penetrates the planar bilayer phospholipid membrane”. The “concentration not suppressing mitochondrial respiration” value [4] was “up to 10 μM” and the “time compound retains intact under incubation conditions in biological media” value ([4]; whole experiment) was “at least tens of minutes”.
